Among the data in a melting point compilation (Tetko et al.; mined from patent text by program, amines drawn as free bases though some values may be those of a salt) are melting point values, retold here.

In turn, `CCCC(=O)c1cnc2ccc(O)cc2c1Cl` returned a melting point of 157 to 160 °C.

`O=S1(=O)NCNc2ccc(F)cc21` displayed a melting point of 159 to 165 °C. As for `CC(C)(C)c1cc(-n2nc3ccc(S(=O)(=O)c4ccccc4)cc3n2)c(O)c(C(C)(C)C)c1`, the figure is 170 to 172 °C; as for `CCCNC(=O)N(Cc1ccc(Cl)cc1)C1CCCC1`, 103 to 105 °C; as for `OC1CSC(Oc2ccnc(-c3cccnc3)c2)C(O)C1O` (centres undefined), 197 °C. The figure for `O=C(Nc1c(Cl)cncc1Cl)c1cc(OC2CCCC2)c(OC(F)F)cn1` is 131 to 132 °C. Molecule `O=c1c2c(n(-c3ccccc3)c3c1CCc1cc(O)ccc1-3)NCCC2` displayed a melting point greater than 330 °C. Molecule `O=C(NCc1ccc2c(c1)-c1[nH]nc(-c3ccsc3)c1C2)c1ccncc1` showed a melting point of 278 to 281 °C. `COc1ccc(-c2ccnc(-c3cn(C)c(=O)n3-c3ccc(C(C)(C)C#N)cc3)c2)cc1` gave a melting point of 219 °C. Consider `CCN(CC)CCOc1cccc2c1c1cccc(Cl)c1n2Cc1ccccc1`, for which the melting point fell in the range of 73.5 to 75 °C. `CC1(C)OC(=O)C(=CC2CC2)C(=O)O1` had a melting point of 91 to 92 °C. As for `C#CC1(OC(=O)NCc2ccccc2)CCN(CCC=C(c2ccc(F)cc2)c2ccc(F)cc2)CC1`, the figure is 53 to 54 °C; as for `COc1cccc2c(=O)c3ccc(SC)cc3oc12`, 201 to 203 °C. The figure for `COc1cc(OC)cc(-c2cc(NC(=O)CC(=O)C(F)(F)F)[nH]n2)c1` is 119 to 121 °C; for `COc1ccnc(CSc2nc3c(OC(F)F)c(OC)c(OC)cc3[nH]2)c1C` it is 177 to 179 °C.

Molecule `CC(=O)Nc1c([N+](=O)[O-])cc(F)c(F)c1F` gave a melting point of 96 to 97 °C.

As for `CCN(CC)CCSc1nc2ccccc2c(=O)n1-c1ccccc1`, the melting point is 84.8 to 86.8 °C.

Regarding `CCOC(=O)Cn1cc(I)c(NC(=O)c2ccccc2)nc1=O`, the melting point fell in the range of 154 to 155 °C.

Consider `CCCOc1cc2c(c3c1OC(C)(C)C3)C(c1cccc(-c3ccncc3)c1)=NC(C)(C)C2`, for which the melting point lay within 132 to 134 °C. The figure for `CCn1c(=N)c(-c2cccs2)cc2cnc(Nc3ccccc3)nc21` is 204 to 205 °C; for `C=CCOc1ccc2oc(C(=O)c3ccc(OC)cc3)c(C)c2c1` it is 74 to 76 °C. Regarding `COC(=O)NNC(=S)Cc1ccc(Cl)cc1`, the melting point turned out to be 148 °C. The figure for `CCCCC1c2ccccc2-c2ccccc2N1S(=O)(=O)c1ccc(O)cc1` (centres undefined) is 149 to 151 °C; for `O=C1C=C(c2ccccc2)SCCN1` it is 148 to 150 °C; for `CSc1nc(C)ccc1NC(=O)CCCCCSc1nc2ccccc2o1` it is 140 to 141 °C.

On to `CCOC(=O)c1c(-c2ccc(OC)c(OC)c2)c2cc(C)ccc2n(C)c1=O`, for which the melting point lay in the range of 109 to 110 °C.

`COc1ccc(C(=O)Nc2ccc(F)cc2)cc1NC(=S)Nc1ccc(C(=O)O)cc1` gave a melting point of 203 to 205 °C.

In turn, `CN(CCCCCC(=O)NO)C(=O)/C=C/C=C/c1ccccc1` displayed a melting point of 145 to 147 °C. Consider `Cc1onc(CCc2ccccc2)c1C(N)=O`, for which the melting point fell in the range of 135 to 136 °C.

`CCCOCCOc1ccc(-c2ccc3c(c2)C=C(C(=O)O)CCN3CCCOC)cc1`: the melting point was in the range of 114 to 115 °C. As for `C#CCn1c(-c2ccccc2)nn(C(C)(C)C)c1=O`, the figure is 82 to 83 °C; as for `Cc1c(C(=O)Nc2ccc(N3CCN(C4CCSCC4)CC3)c(C#N)c2)cnn1-c1ccc(Cl)cc1`, 281 °C; as for `Cn1cnc2nc(Oc3ccccc3)nn2c1=S`, 209 to 211 °C. Consider `Cc1cccc(C)c1NC(=O)c1ccc(C(N)=O)cc1`, for which the melting point lay within 246 to 248 °C. As for `CC1(N2C(=O)c3cccc([N+](=O)[O-])c3C2=O)CCC(=O)NC1=O` (centres undefined), the figure is 265 to 266 °C; as for `CC(=O)O[C@@H](C)C(=O)Nc1c(C(=O)c2cc(C)ccn2)[nH]c2cc(Cl)ccc12`, 213 to 214 °C. As for `COc1ccc(S(=O)(=O)C(CC=C(C)C)(Cc2cccnc2)C(=O)NO)cc1` (centres undefined), the melting point was in the range of 89 to 92 °C. `O=C1c2cccc3cccc(c23)C(O)N1CCN1CCN(c2ccccn2)CC1` (centres undefined) gave a melting point of 174 to 175 °C. For `Nc1c(CO)cccc1[N+](=O)[O-]`, the melting point was found to be 100 °C.

Turning to `CC(=O)NCC#CCn1cncc1C`, the melting point lay within 111 to 115 °C.

Molecule `O=S(Cc1nnc(-c2ccc3c(c2)CCO3)o1)c1cccc(F)c1` (centres undefined) had a melting point of 131 to 132 °C. As for `CN1C(=O)C(c2ccc(OCCCCCBr)cc2)Sc2cc(Cl)ccc21` (centres undefined), the figure is 66 to 68 °C. Molecule `COCc1c(C(=O)OC)c2cc(OC)ccc2n1C` showed a melting point of 89.2 to 91 °C.

`CN(C)C(=O)c1ccc(C=O)cc1` yielded a melting point of 198 to 202 °C. As for `O=[N+]([O-])c1cc(Cl)cnc1Oc1ccc(O)cc1`, the figure is 125 to 126 °C; as for `Cc1c(Nc2c(C#N)cncc2-c2cnc(C=O)n2C)ccc2[nH]ccc12`, 200 to 202 °C; as for `COc1ccc(Cc2nnc3c4ccccc4c(Nc4cccc(-c5nnn(C)n5)c4)nn23)cc1`, 262 to 264 °C. `O=[N+]([O-])C=C(NCCSCc1ncccc1Br)NCCSCc1ncccc1Br` displayed a melting point of 122 to 123 °C.

The molecule `O=C(Cc1cccc2ccccc12)N(O)[C@H](CN1CCCC1)c1ccccc1` came in with a melting point of 81 to 83.5 °C. As for `Cc1ccccc1Nc1c(N)cnc2ccccc12`, the figure is 156 to 158 °C. `COc1ccc([N+](=O)[O-])c(OC2CCOC2=O)c1` (centres undefined): the melting point fell in the range of 109 to 110 °C. For `CC12CCC(OC(=O)c3ccc([N+](=O)[O-])cc3)CC1=CCC1C2CCC2(C)C(=NO)CCC12` (centres undefined), the melting point is 185 to 188 °C.

Turning to `CCOC(=O)c1cn(CC)c2nc(-c3ccncc3)c(F)cc2c1=O`, the melting point lay within 185 to 186 °C. Molecule `COc1cc2c(cc1C(=O)O)nnn2C(C)=O` registered a melting point of 208 to 212 °C.

Consider `CCCc1c(OCCCCCc2c(Cl)ccc(O)c2O)ccc(C(=O)O)c1O`, for which the melting point lay in the range of 178 to 181 °C. In the case of `Cc1oc(-c2ccccc2)nc1CCOc1ccc(C=O)cc1`, the melting point was in the range of 79 to 81 °C. `O=C(N[C@H](Cc1ccc(C(F)(F)F)cc1)[C@@H](O)c1cccc2ccccc12)c1ccc2ccccc2c1` (racemic) returned a melting point of 251 to 252 °C.

The molecule `N#Cc1cnn2c1N(C(=O)CN1CCN(C(=O)Nc3ccc(Cl)c(Cl)c3)CC1)CC=C2c1cccc(C(F)(F)F)c1` had a melting point of 204 to 206 °C. The figure for `Nc1sc2c(c1C(=O)c1ccsc1)CCC2` is 125 to 127 °C. In turn, `Nc1ccc(OC(F)F)cc1[N+](=O)[O-]` came in with a melting point of 68 to 70 °C. Take `Cc1cc2cc(O)c(Cl)c(Cl)c2s1`: the melting point lay in the range of 93 to 95 °C. `CC(C)Cc1ccc(C(=O)O)c(=O)n1C` registered a melting point of 118 to 119 °C. Molecule `CCCCCCCNC(=O)CCCCCCCSc1nc(-c2ccccc2)c(-c2ccccc2)[nH]1` yielded a melting point of 119 to 120 °C. As for `CC(=O)C(O)C1OC(O)(N=C=O)C(O)(C(C)=O)C(O)(C(C)=O)C1(O)C(C)=O` (centres undefined), the figure is 113 to 115 °C; as for `N#CC=C(c1ccccc1C(F)(F)F)c1ccccc1C(F)(F)F`, 65 to 68 °C; as for `O=C1NC(=O)C(Cc2cc(Cl)ccc2[N+](=O)[O-])N1` (centres undefined), 184 to 186 °C. Regarding `OC1Cc2cc(Br)ccc2Sc2ccccc21` (centres undefined), the melting point was 108 to 110 °C. `O=C(O)C(CCSc1ccccc1)Oc1ccc(C(F)(F)F)cc1` (centres undefined) displayed a melting point of 108 to 110 °C.

In the case of `Cc1csc2ccc3[nH]c4c(c3c12)CN(C(=O)OCCCN(C)C)CC4`, the melting point was 184 °C. `CC(=O)NC[C@H]1CN(c2ccc3c(c2)CC(C)N3C(=O)OCc2ccccc2)C(=O)O1` (some centres undefined) came in with a melting point of 170 to 175 °C.

Molecule `CCOC(=O)CC1(N2C(=O)c3ccccc3C2=O)C(=O)N(c2ccccc2)c2ccccc21` (centres undefined) showed a melting point of 148 to 149 °C.

Molecule `Cc1[nH]c2ccc(CCN3CCCCC3)cc2c1C(=O)OCc1ccccc1` gave a melting point of 159 to 161 °C. As for `CCn1cc(C(=O)O)c(=O)c2cc(Cl)c(N3CCNCC3)cc21`, the melting point fell in the range of 228 to 232 °C.

The molecule `CC(=O)OCC1OC(n2cc(C(N)=S)nn2)C(OC(C)=O)C1OC(C)=O` (centres undefined) returned a melting point of 110 to 112 °C.

Molecule `CS(=O)(=O)c1nc(O)nn1-c1ccccc1` showed a melting point of 173 to 175 °C. As to `C[C@@H](N[C@@H](Cc1c[nH]cn1)C(=O)O)[C@H](NC(=O)[C@@H](N)CCCCN)C(=O)O`, the melting point lay in the range of 175 to 179 °C. The molecule `CCC1(CC)OC(c2ccc(S(C)(=O)=O)cc2)=C(Br)C1=O` gave a melting point of 130 to 131 °C. As for `COc1ccc2oc(-c3ccc(O)cc3C)cc2c1`, the figure is 149 to 154 °C; as for `FC(F)(F)c1nc(-c2ncn3c2nc(N2CCOCC2)c2ccccc23)no1`, 182 to 186 °C; as for `CCOC(=O)c1cc(-c2ccc(-c3ccco3)cc2)n(-c2ccc(S(C)(=O)=O)cc2)n1`, 181 °C. In turn, `COc1ccc(-c2c(C(=O)CC(C)C)c(C)nc3cc(OC)c(OC)cc23)cc1OC` showed a melting point of 135 to 137 °C.

The molecule `COC1C(C)OC(OC2CC(C)(O)C(C(=O)O)c3cc4c(c(O)c32)C(=O)c2c(O)cc3c(c2C4=O)OC2OC3(C)C(O)C(N(C)C)C2O)C(OC)C1(C)OC` (centres undefined) showed a melting point of 219 to 229 °C. As to `CC(=O)N1c2cc(C)c(S(=O)(=O)C[N+](=O)[O-])c(C)c2CC1C` (centres undefined), the melting point was determined as 175 °C. For the molecule `O=S(=O)(c1ccccc1)N1CCC(C(=NCc2ccccc2)c2ccc(F)cc2)CC1`, the melting point fell in the range of 153 to 155 °C. Regarding `CS(=O)(=O)N(CCO)C1CCC(Nc2nccc(-n3nnc4ccccc43)n2)CC1` (centres undefined), the melting point was in the range of 230 to 231 °C. The molecule `CCCOC(=O)N(C)S(=O)(=O)c1cc([N+](=O)[O-])c(N(CCC)CCC)c([N+](=O)[O-])c1` displayed a melting point of 110 to 113 °C. Turning to `Cc1nn(-c2ccccn2)c2[nH]c3ccccc3c(=O)c12`, the melting point lay in the range of 199 to 200 °C.

Molecule `Cc1nc2c(Cl)cccc2c(=O)n1C1CCC(=O)NC1=O` (centres undefined) displayed a melting point of 290 to 292 °C. For `CC1CC(=O)N(C)N=C1c1ccc2c(c1)OCC(=O)N2` (centres undefined), the melting point was 204 to 206 °C.
